Test results published in US11787850B2, “Peptidic TGF-beta antagonists” (priority 2015, dated 2023).

Assays:
[1] = test system: TGF-β-induced migration of squamous cell carcinoma (A431) cells; test: Scratch (wound closure) migration assay, A431 cells; assay type: cell-based; conditions: 100 pM TGF-β1, 24 hours, P16 concentrations as indicated (FIG. 27)
Method: FIG. 10A and FIG. 10B illustrate that peptides B, E and X-1 inhibit TGF-β-induced cellular migration of A431 cells in vitro. Results are shown prior to treatment (0 hr, top panels) and after treatment (24 hr, bottom panels) for each of the peptides used. (See FIG. 2 and Table 1 for the amino acid sequence identity of the peptides).
A431 cells were grown to 80-90% confluence and serum-starved overnight. The next day, cells were scratched with a plastic pipette tip (time 0 hour) and then left untreated or treated for 24 hours with 100 pM TGF-β1 alone or in the presence of P16 as indicated. (FIG. 27A) Digital images were captured at 0 h and 24 h using an EVOS XL Core microscope. (FIG. 27B) Micrographs were subsequently quantitated to determine the percentage of the wound area that had closed following 24 hours in the presence or absence of P16, as indicated.
Cells were scratched with a pipette tip and treated without or with 100 pM TGF-b1 alone or in the presence of 10 nM Peptide A or Peptide A1 (C31S mutant). Pictures were taken at 0 and 24 hrs. Peptide A but not Peptide A1 inhibits TGF-b-induced migration in A431 cells. Peptide A contains monomeric and dimeric forms whereas Peptide A1 contains a C31S mutation to prevent intermolecular disulfide bond formation so that it forms monomers only.
Squamous cell carcinoma (A431) or breast cancer (MDA-MB-231) cells were grown to 80-90% confluence and serum-starved overnight. The next day, cells were scratched with a plastic pipette tip (time 0 hour) and then left untreated or treated for 24 hours with 100 pM TGF-β1 alone or in the presence of 10 nM peptide B (100 aa), E (67 aa), or X1 (P28, 28 aa). Digital images were captured at 0 h and 24 h (20× magnification) using an EVOS XL Core microscope.

[2] = test system: TGF-β-induced epithelial-mesenchymal transition (EMT) response in squamous cell carcinoma (A431) cells; test: Immunoblot of EMT markers in A431 cells; assay type: cell-based
Method: (FIG. 26A) Immunoblot analysis was carried out using cell lysates of A431 cells following incubation with TGF-β, P16, or scrambled control (P16.2) as indicated to determine expression of proteins involved in the EMT response. (FIG. 26B) Densitometry analysis was subsequently performed using the developed immunoblot to illustrate the relative expression of each protein as a function as P16 concentration as indicated.
A431 cancer cells treated with 10 nM of P16.2 (negative peptide control), P12, P16 or PA in the absence or presence of 100 pM TGF-b, followed by 24 hrs of incubation. Cells lysates were analyzed by Western blot for the expression of Fibronectin (mesenchymal marker), Snail and Twist (EMT markers). Actin expression was used as loading control.

[3] = test system: TGF-β-induced fibrotic response in primary human fibroblasts isolated from scleroderma patients; test: Immunoblot of fibrotic markers in scleroderma patient fibroblasts; assay type: cell-based; conditions: various concentrations of P16, 20 pM TGF-β, 24 hours (FIG. 31)
Source text: (FIG. 30A) Cell lysates were separated by gel electrophoresis, transferred to a membrane, and immunoblotted with antibodies against the indicated proteins. (FIG. 30B) The data shown represent the mean expression levels of 3 different biological replicates calculated by densitometry of fibronectin, PAI-1, and CTGF intensity levels normalized to α-tubulin. Error bars represent the standard deviation of the replicate experiments. A single asterisk designates a t test P value of less than 0.05.
Fibroblasts were starved for 36 hours, then treated with 20 pM TGF-β and various concentrations of P16 as indicated for 24 hours. (FIG. 31A) Cell lysates were separated by gel electrophoresis, transferred to a membrane, and immunoblotted with antibodies against the indicated proteins. (FIG. 31B) The data shown represent the mean expression levels of 3 different biological replicates calculated by densitometry of fibronectin, PAI-1, and CTGF intensity levels normalized to α-tubulin. Error bars represent the standard deviation of the replicate experiments. A single asterisk designates a t test P value of less than 0.05, and a double asterisk indicates a P value of less than 0.01.

[4] = test system: bleomycin-induced skin fibrosis; test: Bleomycin-induced skin fibrosis (scleroderma) mouse model; assay type: in vivo
Method: Wild type mice were treated with bleomycin ([…]) to induce skin fibrosis or PBS (negative control). Mice were treated with CD109 ([…]), P16 ([…]), or PBS by 100 μL subcutaneous injection every other day for 28 days for a total of 14 injections.
(§1) Mice were injected intradermally with bleomycin (5 mg) in […] PBS or PBS alone every second day for 28 days. Mice were co-injected without or with 1.0 mg recombinant CD109 protein or P16 peptide every second day for 28 days (14 mg total). Skin tissue was harvested and immunohistochemical analysis was performed for the detection of Fibronectin, α-sma, CTGF and Type-1 Collagen. Representative images of sections of skin derived from CD109 and p16 treated mice on day 28 after initial bleomycin or PBS treatment are shown. A total of 4-6 different mice per treatment group were analyzed. Original magnification x 20.
as §1, with “phospho-Smad2, phospho-Smad1” for “Fibronectin, α-sma, CTGF”, “TGF-β levels.” for “Type-1 Collagen.”

[5] = test system: TGF-b induced cellular invasion of squamous cell carcinoma (A431) cells; test: Matrigel invasion assay, A431 cells; assay type: cell-based; conditions: 10 nM peptide, 100 pM TGF-b, 24 hrs (FIG. 38)
Method: A431 cancer cells (8000 cells) were seeded on a BioCoat™ Matrigel® Invasion Chamber and treated with 10 nM of P16.2 (negative peptide control), P16 or PA in the absence or presence of 100 pM TGF-b, followed by 24 hrs of incubation. Invasive cells (in the lower chambers) were stained by crystal violet dye, photographed and counted. Representative photos (A) and statistical plots of invasion (B) are shown. The data are shown as mean±SD of the number of invasive cells for three independent experiments. **P<0.01 and ***P<0.001 as compared with controls. […] Squamous cell carcinoma (epidermoid A431 and head and neck FaDu) cells were stimulated with 100 pM of TGF-b1, then treated with 10 nM of peptide 16.2, P16, PA or CD109 for 24 hours. Cells were analysed by Flow cytometry and CD133 positive cell population, which represent cancer stem cell population, were quantified.

[6] = co-injected with bleomycin every second day for 28 days (FIG. 37)

ETWIWLDTNMGSRIYQ [Peptide P16]
inhibition of A431 cell migration, dose-dependent [1]: inhibit
inhibition of TGF-b induced EMT response (Fibronectin, Snail, Twist) ([2]; 10 nM peptide, 100 pM TGF-b, 24 hrs (FIG. 33)): inhibit
inhibition of TGF-β-induced EMT response in A431 cells, dose-dependent ([2]; immunoblot and densitometry, P16 concentrations as indicated (FIG. 26)): inhibit
inhibition of TGF-β-induced fibrotic response, dose-dependent [3]: inhibit
SMAD1 phosphorylation in skin (immunohistochemistry) [4, 6]: enhancing
SMAD2 phosphorylation in skin (immunohistochemistry) [4, 6]: reduces
TGF-β expression in skin (immunohistochemistry) [4, 6]: reduces
extracellular matrix production (Fibronectin, α-sma, CTGF, Type-1 Collagen, immunohistochemistry) ([4]; co-injected with bleomycin every second day for 28 days, skin on day 28 (FIG. 36)): reduces
collagen content as assessed by trichrome staining ([4]; subcutaneous injection every other day for 28 days (FIG. 35A)): reducing
dermal collagen content, ratio of trichrome stain to total skin area ([4]; subcutaneous injection every other day for 28 days (FIG. 35B)): reducing
dermal thickness ([4]; trichrome staining, subcutaneous injection every other day for 28 days (FIG. 35A)): reducing
inhibition of TGF-b induced cellular invasion [5]: significantly inhibit
